Consider 15 compounds from ChEMBL document CHEMBL5042481, “Structure-Based Optimization of ML300-Derived, Noncovalent Inhibitors Targeting the Severe Acute Respiratory Syndrome Coronavirus 3CL Protease (SARS-CoV-2 3CLpro)” (J Med Chem, 2022).

The source made the active and inactive calls. The calls are words filed in the database; no cut-off is given here. Where only a bound is given, the exact number is not on record here.

Series [1] relates to SARS-CoV-2. The series can be described thus: Antiviral activity against SARS Cov-2 USA_WA1/2020 infected in Vero E6 cells expressing ACE2 reporter assessed as reduction in plaque formation at 0.21 to 50 uM and measured at 3 days post-infection by crystal violet staining based assay. In kind it is functional, organism-based. Particulars: Severe acute respiratory syndrome coronavirus 2, USA_WA1/2020, Vero C1008, 72 h.

For series [2], the system named is SARS-CoV-2. Description: Antiviral activity against SARS Cov-2 USA_WA1/2020 infected in Vero E6 cells expressing ACE2 reporter assessed as inhibition of viral cytopathic effect measured after 68 hrs post infection by neutral red uptake assay. In kind it is functional, organism-based. The following applies: Severe acute respiratory syndrome coronavirus 2, USA_WA1/2020, Vero C1008, 68 h.

The nature of series [3]: Intrinsic clearance in human liver S9 fraction at 25 uM incubated for 1 hr in presence of NADPH by LC-MS/MS analysis. Particulars: read-out: CLH. The series is classed as ADME, subcellular.
Series [4] is described as follows: Intrinsic clearance in human liver microsomes. In kind it is ADME, Microsome. The following applies: read-out: CLH.
Series [5] in a line: Intrinsic clearance in rat liver microsomes. In kind it is ADME, Microsome. Particulars: read-out: CLH.
Series [6] in a line: Protein binding in human plasma assessed as unbound fraction. In kind it is ADME, cell-free.
Series [7] is described as follows: Apparent passive permeability in MDCK-MDR1 cells. In kind it is ADME, cell-based, Canis lupus familiaris. Particulars: dog.
Series [8] deals with CYP3A4 (Homo sapiens, UniProt P08684). The series can be described thus: Inhibition of CYP3A4 (unknown origin) at 10 uM relative to control. The series is classed as ADME.
CYP3A4, sequence (P08684 whole entry): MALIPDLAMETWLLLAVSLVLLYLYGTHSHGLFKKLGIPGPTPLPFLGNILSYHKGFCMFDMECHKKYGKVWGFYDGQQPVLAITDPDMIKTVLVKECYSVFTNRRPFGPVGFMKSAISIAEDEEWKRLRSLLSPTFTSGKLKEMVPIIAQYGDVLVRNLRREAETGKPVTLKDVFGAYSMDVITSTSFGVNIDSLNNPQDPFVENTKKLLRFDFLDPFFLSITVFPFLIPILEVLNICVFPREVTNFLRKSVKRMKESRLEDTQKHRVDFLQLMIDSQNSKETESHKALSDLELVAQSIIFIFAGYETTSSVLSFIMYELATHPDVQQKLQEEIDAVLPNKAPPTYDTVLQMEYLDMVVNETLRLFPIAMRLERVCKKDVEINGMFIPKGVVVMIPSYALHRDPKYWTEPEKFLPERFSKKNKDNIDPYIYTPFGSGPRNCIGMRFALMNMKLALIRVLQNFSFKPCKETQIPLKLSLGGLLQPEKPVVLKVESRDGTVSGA
Series [9] has as its target CYP2D6 (Homo sapiens, UniProt P10635). Description: Inhibition of CYP2D6 (unknown origin) at 10 uM relative to control. The series is classed as ADME.
Series [10] concerns the target CYP2C9 (Homo sapiens, UniProt P11712). The series can be described thus: Inhibition of CYP2C9 (unknown origin) at 10 uM relative to control. The series is classed as ADME.
The subject of series [11] is Severe acute respiratory syndrome coronavirus 2. The following applies: dose microM <=100, time 30.0 min.
Series [12] has as its system Severe acute respiratory syndrome-related coronavirus. Particulars: 1, dose microM <=100, time 30.0 min.
A short description of series [13]: Protein binding in rat plasma assessed as unbound fraction. The series is classed as ADME, cell-free.
In series [14] the test system is SARS-CoV-2. The series can be described thus: Cytotoxicity against SARS CoV-2 infected Vero E6 cells assessed as reduction in cell viability. In kind it is toxicity. Particulars: chlorocebus sabaeus, vero c1008.

CYP2D6, sequence (P10635 whole entry): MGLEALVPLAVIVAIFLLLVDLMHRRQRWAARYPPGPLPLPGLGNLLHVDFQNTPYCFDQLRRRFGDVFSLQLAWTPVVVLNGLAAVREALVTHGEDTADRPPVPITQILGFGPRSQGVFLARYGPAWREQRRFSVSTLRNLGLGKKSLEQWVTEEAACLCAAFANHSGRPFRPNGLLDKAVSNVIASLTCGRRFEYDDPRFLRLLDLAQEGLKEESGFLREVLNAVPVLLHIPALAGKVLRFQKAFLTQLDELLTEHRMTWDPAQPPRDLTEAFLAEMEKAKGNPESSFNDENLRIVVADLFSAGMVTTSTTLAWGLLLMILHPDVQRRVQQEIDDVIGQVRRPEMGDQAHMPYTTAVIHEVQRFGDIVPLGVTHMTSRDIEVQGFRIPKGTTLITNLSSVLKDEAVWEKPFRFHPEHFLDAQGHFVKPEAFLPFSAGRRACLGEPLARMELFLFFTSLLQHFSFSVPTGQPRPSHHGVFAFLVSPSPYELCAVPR
CYP2C9, sequence (P11712 whole entry): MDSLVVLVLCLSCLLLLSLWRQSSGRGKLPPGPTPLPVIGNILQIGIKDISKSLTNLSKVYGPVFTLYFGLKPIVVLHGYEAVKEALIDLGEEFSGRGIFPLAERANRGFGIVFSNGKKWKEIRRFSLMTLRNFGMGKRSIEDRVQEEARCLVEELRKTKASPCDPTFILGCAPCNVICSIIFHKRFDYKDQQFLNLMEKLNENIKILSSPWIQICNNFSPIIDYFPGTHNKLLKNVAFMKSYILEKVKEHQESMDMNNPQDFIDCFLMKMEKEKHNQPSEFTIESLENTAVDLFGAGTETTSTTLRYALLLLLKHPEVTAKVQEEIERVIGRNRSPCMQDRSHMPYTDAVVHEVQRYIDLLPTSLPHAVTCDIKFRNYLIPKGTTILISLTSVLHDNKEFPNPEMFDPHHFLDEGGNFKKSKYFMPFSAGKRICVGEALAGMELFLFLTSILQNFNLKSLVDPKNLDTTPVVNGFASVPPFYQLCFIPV

With `O=C(Cn1nnc2ccccc21)N(Cc1cccc(Cl)c1)c1ccc(-c2cccnc2)cc1`, the 50% effective concentration (EC50) in [1] came to 11.1 µM; in [2], 7.61 µM.

For the compound `O=C(Cn1nnc2ccccc21)N(Cc1cccc(Cl)c1)c1ccc(-c2cn[nH]c2)cc1`, the EC50 in series [1] amounted to 3.31 µM; in series [2], 1.98 µM. Further, the CLint scaled at 25 µM in series [3] came to 436 mL/min/kg. The CLint scaled was determined as 2620 mL/min/kg in [4] and 5670 mL/min/kg in series [5]. Besides, the fraction unbound in series [6] was determined as 0.001. For the same compound, the Papp in [7] is 39.4 ×10⁻⁶ cm/s. Besides, the inhibition at 10 µM in [8] worked out at 96%; in [9], 63%; in series [10] it was 99%.

Consider `O=C(Cn1nnc2ccccc21)N(Cc1ccsc1)c1ccc(-c2ccccc2)cc1`, for which the inhibition result in series [11] and in series [12] was “inactive” throughout.

For the compound `O=C(Cn1nnc2ccccc21)N(Cc1cccc(Cl)c1)c1ccc(-c2ccc[nH]c2=O)cc1`, the values for the EC50 in series [1] and in [2] were 16.7 µM and 8.77 µM, respectively.

As for `O=C(Cc1cccnc1)N(Cc1cccc(Cl)c1)c1ccc(-c2cn[nH]c2)cc1`, the CLint scaled at 25 µM in series [3] was 256 mL/min/kg. In addition, the values for the CLint scaled in [4] and in series [5] were 981 mL/min/kg and 3560 mL/min/kg, respectively. Further, the fraction unbound in series [6] turned out to be 0.004; in [13], 0.035. Besides, the Papp in series [7] was 61.8 ×10⁻⁶ cm/s. Also, the inhibition at 10 µM was found to be 99% in series [8], 55% in series [9] and 99% in series [10].

For the compound `CCC(CC)COC(=O)[C@H](C)NP(=O)(OC[C@H]1O[C@@](C#N)(c2ccc3c(N)ncnn23)[C@H](O)[C@@H]1O)Oc1ccccc1` (single isomer, unassigned), the EC50 was 0.43 µM in series [1] and 0.34 µM in [2].

Turning to `O=C(Cn1nnc2ccccc21)N(Cc1cccc(Cl)c1)c1ccc(-c2cn[nH]c2)cn1`, the EC50 in series [1] is 3.39 µM; in [2], 1.91 µM.

Turning to `COc1cc(-c2cn[nH]c2)ccc1N(Cc1cccc(Cl)c1)C(=O)Cn1nnc2ccccc21`, the half-maximal effective concentration (EC50) in [1] came to 2.01 µM; in series [2], 2.3 µM.

Turning to `O=C(Cn1nnc2ccccc21)N(Cc1ccsc1)c1ccc(-c2cccnc2)cc1`, the inhibition entry in series [11] and in series [12] was “Active” each time. Moreover, the EC50 in series [1] is 14.6 µM; in series [2], 12.1 µM.

In the case of `O=C(Cn1nnc2ccccc21)N(Cc1cccc(Cl)c1)c1ccc(-c2c[nH]cn2)cc1`, the CC50 in [14] was greater than 50 µM. Also, the CLint scaled in series [4] stood at 141 mL/min/kg; in series [5], 589 mL/min/kg. Further, the values for the fraction unbound in series [6] and in series [13] were 0.007 and 0.018, respectively. The Papp in series [7] was 46.1 ×10⁻⁶ cm/s. For the same compound, the figures for the inhibition at 10 µM in series [8], in [9] and in [10] were 100%, 87% and 100%, respectively.

On to `O=C(Nc1ccc(N(Cc2ccsc2)C(=O)Cn2nnc3ccccc32)cc1)C1CC1`, for which the results for the 50% effective concentration (EC50) in series [1] and in series [2] were 28.2 µM and 19.9 µM, respectively.

For the compound `O=C(Cn1nnc2ccccc21)N(Cc1cccc(Cl)c1)c1ccc(-c2cn[nH]c2)nc1`, the EC50 in [1] is 4.65 µM; in series [2], 3.81 µM.

For `O=C(Cn1nnc2ccccc21)N(Cc1ccsc1)c1ccc(-c2c[nH]cn2)cc1`, the EC50 in series [1] came to 1.75 µM; in [2], 1.74 µM. Besides, the fraction unbound in [6] amounted to 0.01.

For the compound `O=C(Cc1cncnc1)N(Cc1cccc(Cl)c1)c1ccc(-c2cn[nH]c2)cc1`, the CLint scaled at 25 µM in series [3] is 145 mL/min/kg. The CLint scaled in series [4] was 620 mL/min/kg; in series [5], 3300 mL/min/kg. Moreover, the results for the fraction unbound in series [6] and in series [13] were 0.018 and 0.11, respectively. In addition, the Papp in [7] turned out to be 66.7 ×10⁻⁶ cm/s. Besides, the inhibition at 10 µM in series [8] was 88%; in series [9] it was 26%; in [10], 92%.

Regarding `COc1cc(N(Cc2cccc(Cl)c2)C(=O)Cn2nnc3ccccc32)ccc1-c1cn[nH]c1`, the EC50 amounted to 3.24 µM in series [1] and 2.93 µM in series [2].
